Experimental data published in PubChem BioAssay AID1259407 (Chemical Carcinogenesis Research Information System (CCRIS), 2018).
Calls of active or inactive are those of the source. The rule behind the calls is not given here.

Test system: CCRIS mutagenicity, Ames/micronucleus/aberration tests
Assay: CCRIS mutagenicity studies
[1] = Test System: AMES SALMONELLA TYPHIMURIUM, Strain/Indicator: TA98, Metabolic Activation: NONE, Method: STANDARD PLATE
[2] = Test System: AMES SALMONELLA TYPHIMURIUM, Strain/Indicator: TA100, Metabolic Activation: NONE, Method: STANDARD PLATE

**Q.** Which mutagenic call (Test System: AMES SALMONELLA TYPHIMURIUM, Strain/Indicator: TA97, Metabolic Activation: NONE, Method: STANDARD PLATE) does the source give for `c1cc2ccc3ccc4ccc5cccc6c(c1)c2c3c4c56` here?
**A.** Its mutagenic call is “inactive; negative”.

**Q.** And the mutagenic call (Test System: AMES SALMONELLA TYPHIMURIUM, Strain/Indicator: TA97, Metabolic Activation: RAT, LIVER, S-9, PCB, Method: STANDARD PLATE)?
**A.** The mutagenic call was “active; positive”.

**Q.** And the mutagenic call [1]?
**A.** The mutagenic call was “inactive; negative”.

**Q.** And the mutagenic call (Test System: AMES SALMONELLA TYPHIMURIUM, Strain/Indicator: TA98, Metabolic Activation: RAT, LIVER, S-9, AROCLOR 1254, Method: FLUCTUATION)?
**A.** The mutagenic call was “active; positive”.

**Q.** What about the mutagenic call (Test System: AMES SALMONELLA TYPHIMURIUM, Strain/Indicator: TA98, Metabolic Activation: RAT, LIVER, S-9, AROCLOR 1254, Method: STANDARD PLATE) of the same compound?
**A.** The mutagenic call was “active; positive”.

**Q.** What about the mutagenic call (Test System: AMES SALMONELLA TYPHIMURIUM, Strain/Indicator: TA98, Metabolic Activation: RAT, LIVER, S-9, PCB, Method: STANDARD PLATE) of the same compound?
**A.** Its mutagenic call is “active; positive”.

**Q.** What about the mutagenic call [2] of the same compound?
**A.** Its mutagenic call is “inactive; negative”.

**Q.** And the mutagenic call (Test System: AMES SALMONELLA TYPHIMURIUM, Strain/Indicator: TA100, Metabolic Activation: RAT, LIVER, S-9, AROCLOR 1254, Method: STANDARD PLATE)?
**A.** Its mutagenic call is “active; positive”.

**Q.** What about the mutagenic call (Test System: AMES SALMONELLA TYPHIMURIUM, Strain/Indicator: TA100, Metabolic Activation: RAT, LIVER, S-9, PCB, Method: STANDARD PLATE) of the same compound?
**A.** Its mutagenic call is “inactive; negative”.

**Q.** And the mutagenic call (Test System: AMES SALMONELLA TYPHIMURIUM, Strain/Indicator: TA1537, Metabolic Activation: RAT, LIVER, S-9, AROCLOR 1254, Method: STANDARD PLATE)?
**A.** The mutagenic call was “active; positive”.

**Q.** What about the mutagenic call (Test System: AMES SALMONELLA TYPHIMURIUM, Strain/Indicator: TA1538, Metabolic Activation: RAT, LIVER, S-9, AROCLOR 1254, Method: FLUCTUATION) of the same compound?
**A.** Its mutagenic call is “active; positive”.

**Q.** What about the mutagenic call (Test System: AMES SALMONELLA TYPHIMURIUM, Strain/Indicator: TA1538, Metabolic Activation: RAT, LIVER, S-9, AROCLOR 1254, Method: STANDARD PLATE) of the same compound?
**A.** The mutagenic call was “active; positive”.

**Q.** And the mutagenic call (Test System: AMES SALMONELLA TYPHIMURIUM, Strain/Indicator: TA1538, Metabolic Activation: RAT, LIVER, S-9, PHENOBARBITAL, Method: STANDARD PLATE)?
**A.** Its mutagenic call is “active; positive”.

**Q.** What does the source list for `CC(F)F`?
**A.** mutagenic call (Test System: AMES SALMONELLA TYPHIMURIUM, Strain/Indicator: TA98, Metabolic Activation: NONE, Method: GAS EXPOSURE): inactive; negative; mutagenic call (Test System: AMES SALMONELLA TYPHIMURIUM, Strain/Indicator: TA98, Metabolic Activation: RAT LIVER S-9, PHENOBARBITAL AND BETA-NAPHTHOFLAVONE, Method: GAS EXPOSURE): inactive; negative; mutagenic call (Test System: AMES SALMONELLA TYPHIMURIUM, Strain/Indicator: TA100, Metabolic Activation: NONE, Method: GAS EXPOSURE): inactive; negative; mutagenic call (Test System: AMES SALMONELLA TYPHIMURIUM, Strain/Indicator: TA100, Metabolic Activation: RAT LIVER S-9, PHENOBARBITAL AND BETA-NAPHTHOFLAVONE, Method: GAS EXPOSURE): inactive; negative; mutagenic call (Test System: AMES SALMONELLA TYPHIMURIUM, Strain/Indicator: TA1535, Metabolic Activation: NONE, Method: GAS EXPOSURE): inactive; negative; mutagenic call (Test System: AMES SALMONELLA TYPHIMURIUM, Strain/Indicator: TA1535, Metabolic Activation: RAT LIVER S-9, PHENOBARBITAL AND BETA-NAPHTHOFLAVONE, Method: GAS EXPOSURE): inactive; negative; mutagenic call (Test System: AMES SALMONELLA TYPHIMURIUM, Strain/Indicator: TA1537, Metabolic Activation: NONE, Method: GAS EXPOSURE): inactive; negative; mutagenic call (Test System: AMES SALMONELLA TYPHIMURIUM, Strain/Indicator: TA1537, Metabolic Activation: RAT LIVER S-9, PHENOBARBITAL AND BETA-NAPHTHOFLAVONE, Method: GAS EXPOSURE): inactive; negative; mutagenic call (Test System: E.COLI, Strain/Indicator: WP2UVRA, Metabolic Activation: NONE, Method: GAS EXPOSURE): inactive; negative; mutagenic call (Test System: E.COLI, Strain/Indicator: WP2UVRA, Metabolic Activation: RAT LIVER S-9, PHENOBARBITAL AND BETA-NAPHTHOFLAVONE, Method: GAS EXPOSURE): inactive; negative

**Q.** How did the mutagenic call (End Point: IN VITRO CHROMOSOMAL ABERRATIONS, Test System: CHO-LB CELLS, Metabolic Activation: NONE) turn out when `O=S1(=O)CC=CC1` was run?
**A.** Its mutagenic call is “inactive; negative”.

**Q.** And the mutagenic call (End Point: IN VITRO CHROMOSOMAL ABERRATIONS, Test System: CHO-LB CELLS, Metabolic Activation: RAT, LIVER, S-9, AROCLOR 1254)?
**A.** Its mutagenic call is “inactive; negative”.

**Q.** What about the mutagenic call (Test System: AMES SALMONELLA TYPHIMURIUM, Strain/Indicator: TA98, Metabolic Activation: HAMSTER, LIVER, S-9, AROCLOR 1254 (10%), Method: PREINCUBATION) of the same compound?
**A.** The mutagenic call was “inactive; negative”.

**Q.** And the mutagenic call (Test System: AMES SALMONELLA TYPHIMURIUM, Strain/Indicator: TA98, Metabolic Activation: NONE, Method: PREINCUBATION)?
**A.** Its mutagenic call is “inactive; negative”.

**Q.** What about the mutagenic call (Test System: AMES SALMONELLA TYPHIMURIUM, Strain/Indicator: TA98, Metabolic Activation: RAT, LIVER, S-9, AROCLOR 1254 (10%), Method: PREINCUBATION) of the same compound?
**A.** Its mutagenic call is “inactive; negative”.

**Q.** And the mutagenic call (Test System: AMES SALMONELLA TYPHIMURIUM, Strain/Indicator: TA100, Metabolic Activation: HAMSTER, LIVER, S-9, AROCLOR 1254 (10%), Method: PREINCUBATION)?
**A.** The mutagenic call was “inactive; negative”.

**Q.** What about the mutagenic call (Test System: AMES SALMONELLA TYPHIMURIUM, Strain/Indicator: TA100, Metabolic Activation: NONE, Method: PREINCUBATION) of the same compound?
**A.** The mutagenic call was “inactive; negative”.

**Q.** And the mutagenic call (Test System: AMES SALMONELLA TYPHIMURIUM, Strain/Indicator: TA100, Metabolic Activation: RAT, LIVER, S-9, AROCLOR 1254 (10%), Method: PREINCUBATION)?
**A.** The mutagenic call was “inactive; negative”.

**Q.** And the mutagenic call (Test System: AMES SALMONELLA TYPHIMURIUM, Strain/Indicator: TA1535, Metabolic Activation: HAMSTER, LIVER, S-9, AROCLOR 1254 (10%), Method: PREINCUBATION)?
**A.** Its mutagenic call is “inactive; negative”.

**Q.** What about the mutagenic call (Test System: AMES SALMONELLA TYPHIMURIUM, Strain/Indicator: TA1535, Metabolic Activation: NONE, Method: PREINCUBATION) of the same compound?
**A.** The mutagenic call was “inactive; negative”.

**Q.** And the mutagenic call (Test System: AMES SALMONELLA TYPHIMURIUM, Strain/Indicator: TA1535, Metabolic Activation: RAT, LIVER, S-9, AROCLOR 1254 (10%), Method: PREINCUBATION)?
**A.** The mutagenic call was “inactive; negative”.

**Q.** What about the mutagenic call (Test System: AMES SALMONELLA TYPHIMURIUM, Strain/Indicator: TA1537, Metabolic Activation: HAMSTER, LIVER, S-9, AROCLOR 1254 (10%), Method: PREINCUBATION) of the same compound?
**A.** Its mutagenic call is “inactive; negative”.

**Q.** And the mutagenic call (Test System: AMES SALMONELLA TYPHIMURIUM, Strain/Indicator: TA1537, Metabolic Activation: NONE, Method: PREINCUBATION)?
**A.** The mutagenic call was “inactive; negative”.

**Q.** And the mutagenic call (Test System: AMES SALMONELLA TYPHIMURIUM, Strain/Indicator: TA1537, Metabolic Activation: RAT, LIVER, S-9, AROCLOR 1254 (10%), Method: PREINCUBATION)?
**A.** Its mutagenic call is “inactive; negative”.

**Q.** Which mutagenic call (End Point: IN VITRO CHROMOSOMAL ABERRATIONS, Test System: CHINESE HAMSTER OVARY CELLS, Metabolic Activation: NONE) does the source give for `Clc1ccc(C(c2ccccc2Cl)C(Cl)Cl)cc1` (configuration not stated) here?
**A.** Its mutagenic call is “inactive; negative”.

**Q.** And the mutagenic call (End Point: IN VITRO CHROMOSOMAL ABERRATIONS, Test System: CHINESE HAMSTER OVARY CELLS, Metabolic Activation: RAT, LIVER, S-9, AROCLOR 1254)?
**A.** The mutagenic call was “inactive; negative”.

**Q.** And the mutagenic call (Test System: AMES SALMONELLA TYPHIMURIUM, Strain/Indicator: TA98, Metabolic Activation: MOUSE, LIVER, S-9, Method: STANDARD PLATE)?
**A.** Its mutagenic call is “inactive; negative”.

**Q.** What about the mutagenic call [1] of the same compound?
**A.** The mutagenic call was “inactive; negative”.

**Q.** And the mutagenic call (Test System: AMES SALMONELLA TYPHIMURIUM, Strain/Indicator: TA98, Metabolic Activation: RAT, LIVER, S-9, Method: STANDARD PLATE)?
**A.** Its mutagenic call is “inactive; negative”.

**Q.** And the mutagenic call (Test System: AMES SALMONELLA TYPHIMURIUM, Strain/Indicator: TA100, Metabolic Activation: MOUSE, LUNG, S-9, Method: STANDARD PLATE)?
**A.** Its mutagenic call is “inactive; negative”.

**Q.** And the mutagenic call [2]?
**A.** Its mutagenic call is “inactive; negative”.

**Q.** And the mutagenic call (Test System: AMES SALMONELLA TYPHIMURIUM, Strain/Indicator: TA100, Metabolic Activation: RAT, LIVER, S-9, Method: STANDARD PLATE)?
**A.** The mutagenic call was “inactive; negative”.

**Q.** What about the mutagenic call (Test System: UDS RODENT HEPATOCYTES, Strain/Indicator: THY INCORP (NON-S-PHASE), Metabolic Activation: NONE, Method: LIQUID SCINTILLATION COUNTING) of the same compound?
**A.** The mutagenic call was “inactive; negative”.

**Q.** And the mutagenic call (Test System: UDS RODENT LUNG CELLS, Strain/Indicator: THY INCORP (NON-S-PHASE), Metabolic Activation: NONE, Method: LIQUID SCINTILLATION COUNTING)?
**A.** The mutagenic call was “active; positive”.
